Like-named read-outs stand apart in the source and are kept apart here.
Columns and labels:
Type in all cases: cell-based
hGIPR = target: T1, hGIPR (Homo sapiens, UniProt P48546); test: Functional cAMP formation (HTRF) in HEK-293 clonal cells expressing hGIPR, 0.1% bovine casein, without or with 1.0% human serum albumin; details: for EC50: geometric mean
T1 construct: expressed in transfected cells
T1 sequence (P48546 22-466): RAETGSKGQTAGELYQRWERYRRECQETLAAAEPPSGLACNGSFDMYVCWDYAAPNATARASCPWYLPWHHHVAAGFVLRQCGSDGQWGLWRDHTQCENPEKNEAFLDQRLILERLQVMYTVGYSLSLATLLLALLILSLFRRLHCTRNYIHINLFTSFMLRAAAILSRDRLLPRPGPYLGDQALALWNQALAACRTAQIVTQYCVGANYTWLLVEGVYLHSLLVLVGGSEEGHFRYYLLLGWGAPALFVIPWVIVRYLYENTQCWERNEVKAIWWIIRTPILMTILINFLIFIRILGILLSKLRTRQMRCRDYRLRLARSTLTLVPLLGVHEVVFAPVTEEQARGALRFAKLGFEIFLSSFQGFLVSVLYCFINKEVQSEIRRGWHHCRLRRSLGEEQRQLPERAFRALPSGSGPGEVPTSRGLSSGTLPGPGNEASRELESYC
Method in brief: (§1)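 Readings of the HTRF 665/620 nm ratio, which falls as cAMP rises, were converted to nM cAMP using a standard curve after 30 min peptide exposure at 37° C.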

hGCGR = target: T2, hGCGR (Homo sapiens, UniProt P47871); test: Functional cAMP formation (HTRF) in HEK-293 clonal cells expressing hGCGR, 0.1% bovine casein, without or with 1.0% human serum albumin; details: geometric mean
T2 construct: expressed in transfected cells
T2 sequence (P47871 26-477): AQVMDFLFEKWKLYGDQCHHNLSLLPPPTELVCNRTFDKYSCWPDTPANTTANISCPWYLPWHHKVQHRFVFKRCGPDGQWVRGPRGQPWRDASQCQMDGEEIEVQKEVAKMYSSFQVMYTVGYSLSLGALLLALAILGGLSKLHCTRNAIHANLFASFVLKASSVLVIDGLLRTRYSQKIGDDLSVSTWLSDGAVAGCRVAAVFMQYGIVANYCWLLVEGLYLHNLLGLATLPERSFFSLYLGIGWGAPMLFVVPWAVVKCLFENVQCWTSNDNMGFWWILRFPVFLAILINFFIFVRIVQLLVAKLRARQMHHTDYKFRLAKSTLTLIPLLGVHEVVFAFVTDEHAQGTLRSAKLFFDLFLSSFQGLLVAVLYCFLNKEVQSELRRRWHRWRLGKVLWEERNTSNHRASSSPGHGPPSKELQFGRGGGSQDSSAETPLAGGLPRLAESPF
Method in brief: as §1

hGLP-1R = hGLP-1R (Homo sapiens, UniProt P43220); test: Functional cAMP formation (HTRF) in HEK-293 clonal cells expressing hGLP-1R, 0.1% bovine casein, without or with 1.0% human serum albumin; parameters: expressed in transfected cells; details: for EC50: geometric mean; for Emax: read-out: hGLP-1R Emax, % ± SEM
Chain of hGLP-1R (P43220 24-463): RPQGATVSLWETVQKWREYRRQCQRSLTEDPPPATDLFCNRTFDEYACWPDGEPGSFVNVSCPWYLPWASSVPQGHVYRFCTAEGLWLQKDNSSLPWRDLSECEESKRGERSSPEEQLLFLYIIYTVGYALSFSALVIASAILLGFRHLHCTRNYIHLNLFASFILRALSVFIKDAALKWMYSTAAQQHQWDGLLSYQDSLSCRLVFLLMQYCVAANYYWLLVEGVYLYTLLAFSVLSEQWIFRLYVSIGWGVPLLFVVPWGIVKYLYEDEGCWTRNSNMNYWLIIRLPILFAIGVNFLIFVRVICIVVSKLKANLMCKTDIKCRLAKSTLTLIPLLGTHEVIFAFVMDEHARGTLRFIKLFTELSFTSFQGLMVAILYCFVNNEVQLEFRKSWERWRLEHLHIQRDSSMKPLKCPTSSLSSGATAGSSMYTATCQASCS
Method in brief: as §1

CC[C@H](C)[C@H](NC(=O)[C@H](CC(C)C)NC(=O)[C@](C)(Cc1ccc(O)cc1)NC(=O)[C@@H](CCC(=O)O)NC(=O)[C@@H](NC(=O)[C@H](Cc1ccccc1)NC(=O)[C@H](CCCCNC(=O)COCCOCCNC(=O)CC[C@H](NC(=O)CCCc1ccc(C(C)(C)C)cc1)C(=O)O)NC(=O)C(C)(C)NC(=O)[C@H](CCC(N)=O)NC(=O)[C@H](C)NC(=O)[C@H](CCCCNC(=O)COCCOCCNC(=O)CC[C@H](NC(=O)CCCc1ccc(C(C)(C)C)cc1)C(=O)O)NC(=O)[C@H](CCCN)NC(=O)[C@H](CC(=O)O)NC(=O)[C@H](CC(C)C)NC(=O)[C@](C)(CC(C)C)NC(=O)[C@@H](NC(=O)[C@H](CO)NC(=O)[C@H](Cc1ccncc1)NC(=O)[C@H](CC(=O)O)NC(=O)[C@H](CO)NC(=O)[C@@H](NC(=O)[C@](C)(Cc1ccccc1F)NC(=O)[C@@H](NC(=O)CNC(=O)[C@H](CCC(=O)O)NC(=O)C(C)(C)NC(=O)[C@@H](N)Cc1ccc(O)cc1)[C@@H](C)O)[C@@H](C)O)[C@@H](C)CC)[C@@H](C)CC)C(=O)N[C@@H](CCC(=O)O)C(=O)NCC(=O)NCC(=O)N1CCC[C@H]1C(=O)N[C@@H](CO)C(=O)N[C@@H](CO)C(=O)NCC(=O)N[C@@H](C)C(=O)N1CCC[C@H]1C(=O)N1CCC[C@H]1C(=O)N1CCC[C@H]1C(=O)N[C@@H](CO)C(N)=O [Example 207]
EC50 (hGIPR; 0.1% bovine casein and 1.0% human serum albumin, 37° C., read-out: hGIPR EC50, nM (SEM, n)): 0.591 nM | Emax (hGIPR; HEK293, 0.1% bovine casein and 1.0% human serum albumin, 37° C., percent of maximal response to GIP(1-42)NH2, read-out: hGIPR Emax, % ± SEM): 97.9% | Emax (hGIPR; HEK293, percent of maximal response to GIP(1-42)NH2, 37° C., 0.1% bovine casein, arithmetic mean, read-out: hGIPR Emax, % ± SEM): 96.2% | EC50 (hGIPR; cAMP, incubated at 37° C., 0.1% bovine casein (no human serum albumin), read-out: hGIPR EC50, nM (SEM, n)): 0.019 nM | EC50 (hGCGR; 0.1% bovine casein and 1.0% human serum albumin, 37° C., read-out: hGCGR EC50, nM (SEM, n)): > 9950 nM | EC50 (hGCGR; cAMP, incubated at 37° C., 0.1% bovine casein (no human serum albumin), read-out: hGCGR EC50, nM (SEM, n)): > 9950 nM | EC50 (hGLP-1R; 0.1% bovine casein and 1.0% human serum albumin, 37° C., read-out: hGLP-1R EC50, nM (SEM, n)): 2.98 nM | Emax (hGLP-1R; HEK293, 0.1% bovine casein and 1.0% human serum albumin, 37° C., percent of maximal response to GLP-1(7-36)NH2): 112% | Emax (hGLP-1R; HEK293, percent of maximal response to GLP-1(7-36)NH2, 37° C., 0.1% bovine casein, arithmetic mean): 95.1% | EC50 (hGLP-1R; cAMP, incubated at 37° C., 0.1% bovine casein (no human serum albumin), read-out: hGLP-1R EC50, nM (SEM, n)): 0.209 nM

CC[C@H](C)[C@H](NC(=O)[C@H](CC(C)C)NC(=O)[C@](C)(Cc1ccc(O)cc1)NC(=O)[C@H](CCCCNC(=O)COCCOCCNC(=O)COCCOCCNC(=O)CCCCCCCCCCCCC(=O)O)NC(=O)[C@@H](NC(=O)[C@H](Cc1ccccc1)NC(=O)[C@H](CCC(=O)O)NC(=O)C(C)(C)NC(=O)[C@H](CCC(N)=O)NC(=O)[C@H](C)NC(=O)[C@H](CCCCNC(=O)COCCOCCNC(=O)COCCOCCNC(=O)CCCCCCCCCCCCC(=O)O)NC(=O)[C@H](CCCN)NC(=O)[C@H](CC(=O)O)NC(=O)[C@H](CC(C)C)NC(=O)[C@](C)(CC(C)C)NC(=O)[C@@H](NC(=O)[C@H](CO)NC(=O)[C@H](Cc1ccncc1)NC(=O)[C@H](CC(=O)O)NC(=O)[C@H](CO)NC(=O)[C@@H](NC(=O)[C@](C)(Cc1ccccc1F)NC(=O)[C@@H](NC(=O)CNC(=O)[C@H](CCC(=O)O)NC(=O)C(C)(C)NC(=O)[C@@H](N)Cc1ccc(O)cc1)[C@@H](C)O)[C@@H](C)O)[C@@H](C)CC)[C@@H](C)CC)C(=O)N[C@@H](CCC(=O)O)C(=O)NCC(=O)NCC(=O)N1CCC[C@H]1C(=O)N[C@@H](CO)C(=O)N[C@@H](CO)C(=O)NCC(=O)N[C@@H](C)C(=O)N1CCC[C@H]1C(=O)N1CCC[C@H]1C(=O)N1CCC[C@H]1C(=O)N[C@@H](CO)C(N)=O [Example 81]
Emax (hGIPR; HEK293, read-out: hGIPR Emax, % ± SEM, 0.1% bovine casein and 1.0% human serum albumin, 37° C., percent of maximal response to GIP(1-42)NH2): 97.4% | EC50 (hGIPR; hGIPR EC50, nM (SEM, n), 0.1% bovine casein and 1.0% human serum albumin, 37° C.): 0.531 nM | EC50 (hGIPR; hGIPR EC50, nM (SEM, n), cAMP, incubated at 37° C., 0.1% bovine casein (no human serum albumin)): 0.0114 nM | EC50 (hGCGR; hGCGR EC50, nM (SEM, n), 0.1% bovine casein and 1.0% human serum albumin, 37° C.): > 9950 nM | EC50 (hGCGR; hGCGR EC50, nM (SEM, n), cAMP, incubated at 37° C., 0.1% bovine casein (no human serum albumin)): > 9950 nM | EC50 (hGLP-1R; hGLP-1R EC50, nM (SEM, n), 0.1% bovine casein and 1.0% human serum albumin, 37° C.): 3.47 nM | EC50 (hGLP-1R; hGLP-1R EC50, nM (SEM, n), cAMP, incubated at 37° C., 0.1% bovine casein (no human serum albumin)): 0.176 nM
